Results taken from the supplement of paper PMC10307832.

These cell lines were tested with CC1=C(C(=NN1)C)CC2=C(C3=C(S2)N(C(=O)N(C3=O)C)CC(C)C)C(=O)N4C[C@@H](CO4)O + NC(=O)Nc1cc(-c2cccc(F)c2)sc1C(=O)N[C@H]1CCCNC1 [AZD7762] (partner 0.2 µM) (assay: relative viability (nuclei count vs DMSO), 5 days (fraction); higher = more cells survive). Conditions: first compound 0.0025 µM.
Method in brief: (§1)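 A single step with final 0.05% Triton X-100, 1% formaldehyde and 1 ug/ml Hoechst fixed the cells and stained nuclei 5 days after treatment. Lung cancer cell lines in 1536-well plates had been treated by pin tool the day after seeding with one drug alone or a fixed anchor-drug dose plus five library-drug doses (not always all listed) in √10 steps, and nuclei were counted on 4× images. Relative viability is the ratio of nuclei in treated wells to nuclei in vehicle wells, taken as the median of duplicate plates.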

Cell Line	relative viability
NCI-H2170	0.899
NCI-H2405	0.793
HOP-62	0.668
LU99A	0.333
BEN	0.637
HARA	0.281
HCC-78	0.538
NCI-H322M	0.655
LCLC-97TM1	0.194
A-427	0.73
NCI-H441	1.44
NCI-H1734	0.53
NCI-H460	0.726
NCI-H2347	0.739
NCI-H1395	0.416

Same assay, conditions: first compound 0.007906 µM

Cell Line	relative viability
NCI-H2170	0.925
NCI-H2405	0.778
HOP-62	0.589
LU99A	0.379
BEN	0.631
HARA	0.288
HCC-78	0.588
NCI-H322M	0.57
LCLC-97TM1	0.326
A-427	0.691
NCI-H441	1.23
NCI-H1734	0.581
NCI-H460	0.65
NCI-H2347	0.697
NCI-H1395	0.4

Same assay, conditions: first compound 0.025 µM

Cell Line	relative viability
NCI-H2170	0.854
NCI-H2405	0.573
HOP-62	0.646
LU99A	0.326
BEN	0.599
HARA	0.324
HCC-78	0.555
NCI-H322M	0.71
LCLC-97TM1	0.331
A-427	0.752
NCI-H441	1.12
NCI-H1734	0.342
NCI-H460	0.562
NCI-H2347	0.734
NCI-H1395	0.4

Same assay, conditions: first compound 0.07906 µM

Cell Line	relative viability
NCI-H2170	0.895
NCI-H2405	0.69
HOP-62	0.615
LU99A	0.311
BEN	0.51
HARA	0.297
HCC-78	0.529
NCI-H322M	0.573
LCLC-97TM1	0.28
A-427	0.847
NCI-H441	1.3
NCI-H1734	0.402
NCI-H460	0.551
NCI-H2347	0.718
NCI-H1395	0.356

Same assay, conditions: first compound 0.25 µM

Cell Line	relative viability
NCI-H2170	0.906
NCI-H2405	0.678
HOP-62	0.851
LU99A	0.337
BEN	0.646
HARA	0.218
HCC-78	0.673
NCI-H322M	0.662
LCLC-97TM1	0.369
A-427	0.677
NCI-H441	1.16
NCI-H1734	0.381
NCI-H460	0.596
NCI-H2347	0.667
NCI-H1395	0.389

What follows are cell lines tested with Cc1ccccc1C(C(=O)NC1CCCCC1)N(C(=O)Cn1ccnc1C)c1cccc(F)c1 [IDH-C35] + Cc1nc(NC(=O)N2CCC[C@H]2C(N)=O)sc1-c1ccnc(C(C)(C)C(F)(F)F)c1 [Alpelisib] (partner 2 µM) in the same assay as above. Conditions: first compound 0.08 µM.
Method in brief: as §1

Cell Line	relative viability
NCI-H2170	0.798
NCI-H2405	0.927
HOP-62	1.07
LU99A	0.49
BEN	0.988
HARA	0.727
HCC-78	0.361
NCI-H322M	0.878
LCLC-97TM1	0.289
A-427	1.06
NCI-H441	0.649
NCI-H1734	0.764
NCI-H460	0.472
NCI-H2347	1.14
NCI-H1395	1.12

Same assay, conditions: first compound 0.253 µM

Cell Line	relative viability
NCI-H2170	0.776
NCI-H2405	0.815
HOP-62	0.876
LU99A	0.514
BEN	0.927
HARA	0.8
HCC-78	0.323
NCI-H322M	0.818
LCLC-97TM1	0.213
A-427	1.04
NCI-H1734	0.694
NCI-H460	0.504
NCI-H2347	1.12
NCI-H1395	0.889

Same assay, conditions: first compound 0.8 µM

Cell Line	relative viability
NCI-H2170	0.832
NCI-H2405	0.777
HOP-62	0.953
LU99A	0.553
BEN	0.885
HARA	0.874
HCC-78	0.322
NCI-H322M	0.743
LCLC-97TM1	0.242
A-427	1.04
NCI-H441	0.688
NCI-H1734	0.72
NCI-H460	0.545
NCI-H2347	1.03
NCI-H1395	1.09

Same assay, conditions: first compound 2.53 µM

Cell Line	relative viability
NCI-H2170	0.795
LU99A	0.517
BEN	0.975
HARA	0.78
HCC-78	0.397
NCI-H322M	0.806
A-427	1.07
NCI-H441	0.684
NCI-H1734	0.641
NCI-H460	0.549
NCI-H2347	1.16
NCI-H1395	1.04

Same assay, conditions: first compound 8 µM

Cell Line	relative viability
NCI-H2170	0.788
NCI-H2405	0.736
HOP-62	0.85
LU99A	0.562
BEN	0.942
HARA	0.729
HCC-78	0.331
NCI-H322M	0.837
LCLC-97TM1	0.242
A-427	1.1
NCI-H441	0.754
NCI-H1734	0.648
NCI-H460	0.439
NCI-H2347	1.03
NCI-H1395	1.05

What follows are cell lines tested with CC1=C(C(=NN1)C)CC2=C(C3=C(S2)N(C(=O)N(C3=O)C)CC(C)C)C(=O)N4C[C@@H](CO4)O + COc1cc2c(Oc3ccc(NC(=O)C4(C(=O)Nc5ccc(F)cc5)CC4)cc3F)ccnc2cc1OCCCN1CCOCC1 [Foretinib] (partner 0.25 µM) in the same assay as above. Conditions: first compound 0.0025 µM.
Method in brief: as §1

Cell Line	relative viability
NCI-H2170	0.989
NCI-H2405	1.09
HOP-62	1.2
LU99A	0.901
BEN	0.666
HARA	1
HCC-78	0.579
NCI-H322M	1.07
LCLC-97TM1	0.97
A-427	1.29
NCI-H441	1.43
NCI-H1734	0.811
NCI-H460	1.01
NCI-H2347	1.23
NCI-H1395	1.11

Same assay, conditions: first compound 0.007906 µM

Cell Line	relative viability
NCI-H2170	1.09
NCI-H2405	1.05
HOP-62	1.09
LU99A	0.943
BEN	0.629
HARA	1.01
HCC-78	0.572
NCI-H322M	0.969
LCLC-97TM1	1.01
A-427	1.22
NCI-H441	1.2
NCI-H1734	0.976
NCI-H460	1.09
NCI-H2347	1.13
NCI-H1395	1.04

Same assay, conditions: first compound 0.025 µM

Cell Line	relative viability
NCI-H2170	0.984
HOP-62	1.04
LU99A	0.766
BEN	0.577
HARA	0.84
HCC-78	0.601
NCI-H322M	1.04
LCLC-97TM1	0.935
A-427	0.937
NCI-H441	0.826
NCI-H1734	0.896
NCI-H460	0.949
NCI-H2347	0.716
NCI-H1395	0.804

Same assay, conditions: first compound 0.07906 µM

Cell Line	relative viability
NCI-H2170	0.972
NCI-H2405	0.978
HOP-62	1.06
LU99A	0.768
BEN	0.661
HARA	0.656
HCC-78	0.527
NCI-H322M	0.977
LCLC-97TM1	0.775
A-427	1.11
NCI-H441	0.937
NCI-H1734	0.9
NCI-H460	1.01
NCI-H2347	0.831
NCI-H1395	0.812

Same assay, conditions: first compound 0.25 µM

Cell Line	relative viability
NCI-H2170	1.08
NCI-H2405	1.01
HOP-62	1.09
LU99A	0.747
BEN	0.596
HARA	0.984
HCC-78	0.563
NCI-H322M	0.98
LCLC-97TM1	0.934
A-427	1.14
NCI-H441	0.968
NCI-H1734	0.916
NCI-H460	1.11
NCI-H2347	0.881
NCI-H1395	0.824

Each cell line was assayed with CC1=C(C(=NN1)C)CC2=C(C3=C(S2)N(C(=O)N(C3=O)C)CC(C)C)C(=O)N4C[C@@H](CO4)O + Cc1cc(Nc2cc(N3CCN(C)CC3)nc(Sc3ccc(NC(=O)C4CC4)cc3)n2)n[nH]1 [Tozasertib] (partner 0.1 µM) in the same assay as above. Conditions: first compound 0.0025 µM.
Method in brief: as §1

Cell Line	relative viability
NCI-H2170	0.67
NCI-H2405	0.697
HOP-62	0.312
LU99A	0.24
BEN	0.495
HARA	0.129
HCC-78	0.415
NCI-H322M	0.532
LCLC-97TM1	0.207
A-427	0.189
NCI-H441	0.657
NCI-H1734	0.309
NCI-H460	0.493
NCI-H2347	0.584
NCI-H1395	0.757

Same assay, conditions: first compound 0.007906 µM

Cell Line	relative viability
NCI-H2170	0.734
NCI-H2405	0.729
HOP-62	0.376
LU99A	0.285
BEN	0.563
HARA	0.125
HCC-78	0.406
NCI-H322M	0.485
LCLC-97TM1	0.277
A-427	0.188
NCI-H441	0.647
NCI-H1734	0.248
NCI-H460	0.337
NCI-H2347	0.591
NCI-H1395	0.681

Same assay, conditions: first compound 0.025 µM

Cell Line	relative viability
NCI-H2170	0.736
HOP-62	0.344
LU99A	0.279
BEN	0.586
HARA	0.105
HCC-78	0.544
NCI-H322M	0.454
LCLC-97TM1	0.219
A-427	0.215
NCI-H441	0.575
NCI-H1734	0.25
NCI-H460	0.494
NCI-H2347	0.54
NCI-H1395	0.581

Same assay, conditions: first compound 0.07906 µM

Cell Line	relative viability
NCI-H2170	0.599
NCI-H2405	0.577
HOP-62	0.393
LU99A	0.274
BEN	0.457
HARA	0.111
HCC-78	0.453
NCI-H322M	0.495
LCLC-97TM1	0.209
A-427	0.227
NCI-H441	0.664
NCI-H1734	0.234
NCI-H460	0.479
NCI-H2347	0.522
NCI-H1395	0.592

Same assay, conditions: first compound 0.25 µM

Cell Line	relative viability
NCI-H2170	0.8
NCI-H2405	0.676
HOP-62	0.407
LU99A	0.283
BEN	0.52
HARA	0.112
HCC-78	0.284
NCI-H322M	0.461
LCLC-97TM1	0.285
A-427	0.237
NCI-H441	0.623
NCI-H1734	0.259
NCI-H460	0.54
NCI-H2347	0.727
NCI-H1395	0.599
